# Experimental data: ChEMBL document CHEMBL1201862, “PubChem BioAssay data set” (2004)
# The source made the active and inactive calls.
# Legend:
# X-box-binding protein 1 = X-box-binding protein 1 (Homo sapiens, UniProt P17861); format: functional, Cricetulus griseus;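 further: confirmatory dose-response counter-screen serving a CHOP assay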
# [1] = molecular target: T1, Dual specificity protein phosphatase 3 (Homo sapiens, UniProt P51452); test: SAR VHR1 Fluorescent Assay for In Vitro dose response studies. [Related pubchem assays (depositor defined):AID1654, AID1661, AID1878, AID1992, AID2004, AID2070, AID2085]; format: functional
# T1 sequence (P51452 whole entry): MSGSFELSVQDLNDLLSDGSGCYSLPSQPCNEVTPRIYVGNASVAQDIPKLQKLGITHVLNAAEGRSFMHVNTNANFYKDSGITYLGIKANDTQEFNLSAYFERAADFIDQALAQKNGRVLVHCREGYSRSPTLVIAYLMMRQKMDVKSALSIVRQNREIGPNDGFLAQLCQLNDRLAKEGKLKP
# [2] = molecular target: T2, Tyrosine-protein phosphatase non-receptor type 7 (Homo sapiens, UniProt P35236); test: redox-active compounds inhibiting HePTP phosphatase – biochemical, fluorescence, mechanism study (AID 2068); format: functional
# T2 sequence (P35236 whole entry): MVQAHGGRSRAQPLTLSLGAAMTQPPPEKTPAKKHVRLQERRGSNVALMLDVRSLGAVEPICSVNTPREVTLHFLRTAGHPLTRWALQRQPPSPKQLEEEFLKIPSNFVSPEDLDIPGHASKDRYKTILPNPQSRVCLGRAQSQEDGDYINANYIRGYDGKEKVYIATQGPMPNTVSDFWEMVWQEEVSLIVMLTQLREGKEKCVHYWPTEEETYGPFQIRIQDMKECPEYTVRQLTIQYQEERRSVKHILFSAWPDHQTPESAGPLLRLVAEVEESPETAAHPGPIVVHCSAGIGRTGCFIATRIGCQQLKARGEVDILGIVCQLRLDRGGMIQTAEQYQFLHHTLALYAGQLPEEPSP
# [3] = molecular target: T1, Dual specificity protein phosphatase 3; test: SAR VHR1 absorbance Assay for In Vitro dose response studies. [Related pubchem assays (depositor defined):AID1654, AID1661, AID1878, AID1992, AID2004]
# [4] = molecular target: T3, Dual specificity protein phosphatase 6 (Rattus norvegicus, UniProt Q64346); format: functional;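 further: confirmatory in vitro dose-response testing of MKP-3 inhibition; recombinant His-tagged MKP-3 made in E. coli BL21 with OMFP substrate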
# T3 sequence (Q64346 whole entry): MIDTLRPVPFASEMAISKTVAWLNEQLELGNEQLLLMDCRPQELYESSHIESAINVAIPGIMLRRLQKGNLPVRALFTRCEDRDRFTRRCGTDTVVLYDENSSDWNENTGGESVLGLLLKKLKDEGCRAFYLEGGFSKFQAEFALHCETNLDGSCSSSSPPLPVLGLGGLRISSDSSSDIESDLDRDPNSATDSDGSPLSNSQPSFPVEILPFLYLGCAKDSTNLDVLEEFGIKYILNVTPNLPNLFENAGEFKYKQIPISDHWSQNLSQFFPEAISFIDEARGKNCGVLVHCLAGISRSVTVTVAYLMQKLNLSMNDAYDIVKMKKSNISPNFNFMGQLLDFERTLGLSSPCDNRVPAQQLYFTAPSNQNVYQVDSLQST
# [5] = molecular target: Metabotropic glutamate receptor 4 (Homo sapiens, UniProt Q14833); test: Modulation of the Metabotropic Glutamate Receptor mGluR4: Potency at human mGluR4. Modulation of intracellular Ca2+ using Fluo-4, AM, in CHO expressing recombinant receptor [Related pubchem assays (depositor defined):AID2437, AID2807]; format: functional, cell-based
# Sequence of Metabotropic glutamate receptor 4 (Homo sapiens, UniProt Q14833) (Q14833 whole entry): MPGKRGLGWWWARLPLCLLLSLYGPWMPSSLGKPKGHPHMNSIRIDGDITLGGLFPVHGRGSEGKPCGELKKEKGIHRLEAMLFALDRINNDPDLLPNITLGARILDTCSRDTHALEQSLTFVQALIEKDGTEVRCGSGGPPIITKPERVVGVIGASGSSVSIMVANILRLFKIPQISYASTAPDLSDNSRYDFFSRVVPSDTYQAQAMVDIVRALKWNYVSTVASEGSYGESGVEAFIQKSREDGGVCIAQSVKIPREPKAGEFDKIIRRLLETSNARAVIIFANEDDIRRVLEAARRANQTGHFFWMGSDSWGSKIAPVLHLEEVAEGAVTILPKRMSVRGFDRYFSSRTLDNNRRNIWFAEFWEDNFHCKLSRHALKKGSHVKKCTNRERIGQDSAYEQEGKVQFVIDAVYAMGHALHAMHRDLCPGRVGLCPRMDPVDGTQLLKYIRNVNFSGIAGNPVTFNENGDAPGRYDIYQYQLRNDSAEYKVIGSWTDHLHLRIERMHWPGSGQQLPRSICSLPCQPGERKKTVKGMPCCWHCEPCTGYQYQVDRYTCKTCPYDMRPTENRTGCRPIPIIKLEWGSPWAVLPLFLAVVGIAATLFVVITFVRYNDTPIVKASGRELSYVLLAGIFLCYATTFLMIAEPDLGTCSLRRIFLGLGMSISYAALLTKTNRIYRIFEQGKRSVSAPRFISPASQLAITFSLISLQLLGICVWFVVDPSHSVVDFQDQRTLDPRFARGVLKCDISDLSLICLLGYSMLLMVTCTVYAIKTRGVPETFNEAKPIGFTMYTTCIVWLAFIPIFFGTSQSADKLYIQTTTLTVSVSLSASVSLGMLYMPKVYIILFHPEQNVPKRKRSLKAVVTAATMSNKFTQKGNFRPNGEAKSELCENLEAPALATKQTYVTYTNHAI
# [6] = molecular target: Metabotropic glutamate receptor 4 (Rattus norvegicus, UniProt P31423); test: Modulation of the Metabotropic Glutamate Receptor mGluR4: Rat PAM Potency. [Related pubchem assays (depositor defined):AID2437, AID2807]; format: functional
# Sequence of Metabotropic glutamate receptor 4 (Rattus norvegicus, UniProt P31423) (P31423 whole entry): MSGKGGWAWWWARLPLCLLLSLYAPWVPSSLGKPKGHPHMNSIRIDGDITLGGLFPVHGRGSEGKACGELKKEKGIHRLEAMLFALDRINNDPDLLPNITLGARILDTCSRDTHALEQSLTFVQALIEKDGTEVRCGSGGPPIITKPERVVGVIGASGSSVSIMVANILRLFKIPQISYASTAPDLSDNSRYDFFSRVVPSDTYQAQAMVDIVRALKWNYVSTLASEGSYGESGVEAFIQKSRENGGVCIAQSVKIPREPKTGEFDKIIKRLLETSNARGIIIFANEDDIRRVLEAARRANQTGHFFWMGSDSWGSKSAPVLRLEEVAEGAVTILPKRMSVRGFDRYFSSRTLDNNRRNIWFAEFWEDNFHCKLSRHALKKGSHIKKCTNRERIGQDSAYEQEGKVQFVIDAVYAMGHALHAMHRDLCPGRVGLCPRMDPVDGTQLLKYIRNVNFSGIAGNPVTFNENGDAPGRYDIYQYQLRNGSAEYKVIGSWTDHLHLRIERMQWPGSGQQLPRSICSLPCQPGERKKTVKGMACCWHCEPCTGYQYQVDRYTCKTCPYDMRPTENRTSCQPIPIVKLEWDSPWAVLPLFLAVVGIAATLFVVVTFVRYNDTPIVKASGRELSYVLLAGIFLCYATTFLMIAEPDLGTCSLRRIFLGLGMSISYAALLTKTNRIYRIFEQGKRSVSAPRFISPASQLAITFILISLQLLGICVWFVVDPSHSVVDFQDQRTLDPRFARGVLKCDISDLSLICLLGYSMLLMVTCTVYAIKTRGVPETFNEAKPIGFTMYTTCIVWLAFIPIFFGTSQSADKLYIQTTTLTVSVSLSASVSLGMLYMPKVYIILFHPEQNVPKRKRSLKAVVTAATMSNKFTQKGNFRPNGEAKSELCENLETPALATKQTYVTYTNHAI
# [7] = molecular target: Neuropeptides B/W receptor type 1 (Homo sapiens, UniProt P48145); test: human NPBW1 receptor blockade, IC50 – cell-based, fluorescence, dose response, late-stage follow-up (AID 463251); format: functional
# Sequence of Neuropeptides B/W receptor type 1 (P48145 whole entry): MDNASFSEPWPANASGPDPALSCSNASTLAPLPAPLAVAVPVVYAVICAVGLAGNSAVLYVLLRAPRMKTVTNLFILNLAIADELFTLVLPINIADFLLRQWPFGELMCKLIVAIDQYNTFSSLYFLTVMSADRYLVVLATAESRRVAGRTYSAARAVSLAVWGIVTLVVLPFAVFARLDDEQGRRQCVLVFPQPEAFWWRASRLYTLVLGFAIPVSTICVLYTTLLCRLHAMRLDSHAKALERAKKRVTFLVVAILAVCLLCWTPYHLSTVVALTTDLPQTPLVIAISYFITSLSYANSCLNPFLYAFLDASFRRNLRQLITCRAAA
# [8] = molecular target: Melanin-concentrating hormone receptor 1 (Homo sapiens, UniProt Q99705); test: Late-stage fluorescence-based counterscreen for antagonists of the G-protein coupled receptor 7 (GPR7): cell-based dose response assay to identify antagonists of the melanin-concentrating hormone receptor 1 (MCHR1). [Related pubchem assays (depositor defined):AID1861, AID1880, AID1952, AID2148, AID2251, AID2257, AID485339]; format: functional;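 further: stimulated with 30 nM MCH peptide agonist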
# Sequence of Melanin-concentrating hormone receptor 1 (Q99705 whole entry, the tested form may be a part): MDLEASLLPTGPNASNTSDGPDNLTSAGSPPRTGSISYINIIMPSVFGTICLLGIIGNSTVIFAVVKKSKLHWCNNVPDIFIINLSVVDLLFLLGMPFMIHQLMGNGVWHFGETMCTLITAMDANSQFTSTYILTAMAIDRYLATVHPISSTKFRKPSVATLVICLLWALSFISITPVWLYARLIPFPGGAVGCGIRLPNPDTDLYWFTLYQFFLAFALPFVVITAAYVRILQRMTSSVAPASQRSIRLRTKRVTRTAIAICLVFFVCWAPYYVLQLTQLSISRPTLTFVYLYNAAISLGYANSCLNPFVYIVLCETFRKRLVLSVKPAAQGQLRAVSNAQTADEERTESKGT
# [9] = molecular target: NACHT, LRR and PYD domains-containing protein 3 (Homo sapiens, UniProt Q96P20); test: NALP3 inhibitors in yeast, dose response, luminescent (AID 488799); format: functional
# Sequence of NACHT, LRR and PYD domains-containing protein 3 (Q96P20 whole entry, the tested form may be a part): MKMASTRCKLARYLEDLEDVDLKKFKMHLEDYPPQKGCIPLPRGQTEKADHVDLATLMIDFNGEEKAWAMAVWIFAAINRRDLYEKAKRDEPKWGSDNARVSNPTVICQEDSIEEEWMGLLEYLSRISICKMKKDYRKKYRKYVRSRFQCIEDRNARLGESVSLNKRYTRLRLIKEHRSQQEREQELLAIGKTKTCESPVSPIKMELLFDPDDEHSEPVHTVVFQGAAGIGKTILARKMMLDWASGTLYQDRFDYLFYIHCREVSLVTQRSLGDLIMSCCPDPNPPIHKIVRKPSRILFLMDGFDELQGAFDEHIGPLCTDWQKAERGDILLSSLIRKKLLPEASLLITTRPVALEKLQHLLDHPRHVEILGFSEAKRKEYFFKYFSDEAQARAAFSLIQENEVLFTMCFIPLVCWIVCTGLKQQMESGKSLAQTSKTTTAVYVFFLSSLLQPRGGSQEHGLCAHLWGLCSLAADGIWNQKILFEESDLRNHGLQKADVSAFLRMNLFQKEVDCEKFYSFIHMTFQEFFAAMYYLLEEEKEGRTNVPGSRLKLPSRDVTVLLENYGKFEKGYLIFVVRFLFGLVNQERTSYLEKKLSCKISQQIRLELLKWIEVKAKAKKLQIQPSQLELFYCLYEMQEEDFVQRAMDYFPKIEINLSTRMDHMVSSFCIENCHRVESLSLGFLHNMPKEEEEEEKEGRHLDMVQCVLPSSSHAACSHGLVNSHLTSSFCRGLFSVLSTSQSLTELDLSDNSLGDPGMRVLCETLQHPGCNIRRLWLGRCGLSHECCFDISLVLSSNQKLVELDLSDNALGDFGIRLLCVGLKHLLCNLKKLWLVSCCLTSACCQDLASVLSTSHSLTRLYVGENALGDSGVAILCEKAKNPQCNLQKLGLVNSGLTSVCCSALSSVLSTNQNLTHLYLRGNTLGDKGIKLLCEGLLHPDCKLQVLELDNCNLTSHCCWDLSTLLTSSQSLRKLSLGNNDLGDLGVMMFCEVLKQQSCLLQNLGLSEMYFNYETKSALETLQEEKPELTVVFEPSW
# [10] = molecular target: Multidrug resistance protein CDR1 (Candida albicans, UniProt P43071); test: inhibition of Nile Red efflux via Candida CDR1 – S. cerevisiae AD1-8u, singleplex, Cherry Pick1 hits, dose response (AID 588606); format: functional
# Sequence of X-box-binding protein 1 (P17861 whole entry): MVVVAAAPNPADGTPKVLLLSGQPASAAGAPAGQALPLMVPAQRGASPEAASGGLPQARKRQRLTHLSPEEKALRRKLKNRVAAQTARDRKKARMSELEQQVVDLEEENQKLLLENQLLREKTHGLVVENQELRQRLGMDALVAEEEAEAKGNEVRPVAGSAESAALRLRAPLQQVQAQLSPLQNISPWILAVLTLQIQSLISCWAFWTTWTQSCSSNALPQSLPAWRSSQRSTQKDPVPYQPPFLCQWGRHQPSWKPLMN
structure (smiles),measurement,setting,value
Cc1ccc(-c2ccc(/C=C(\C#N)C(=O)Nc3cc(C)nn3-c3ccccc3)o2)cc1,Absolute IC50 (XBP1),X-box-binding protein 1,10 µM
S=C(NCc1ccccc1)c1cn(CCOc2ccccc2)c2ccccc12,IC50,[1],> 100 µM (inactive)
same,IC50,[2],> 100 µM (inactive)
same,IC50,[3],> 100 µM (inactive)
same,IC50,[4],> 100 µM (inactive)
CC1(C)CC(=O)N(c2ccc(NC(=O)c3ccccn3)cc2Cl)C1=O,EC50,[5],1.48 µM (active)
same,EC50,[6],2.32 µM (active)
CC(=O)OCc1ccc(Oc2c(Cl)cnn(-c3ccc(C(C)C)cc3)c2=O)cc1,IC50,[7],1.6 µM (active)
same,IC50,[8],3.5 µM (active)
CCC1Nc2ncnc(N3CCN(c4ccccn4)CC3)c2N(Cc2ccc(Br)cc2)C1=O (stereo unspecified),IC50,[9],3.71 µM (active)
same,EC50,[10],12.4 µM (active)
